The assay deals with T1, Receptor-interacting serine/threonine-protein kinase 1 (Homo sapiens, UniProt Q13546).
T1 sequence (Q13546 whole entry): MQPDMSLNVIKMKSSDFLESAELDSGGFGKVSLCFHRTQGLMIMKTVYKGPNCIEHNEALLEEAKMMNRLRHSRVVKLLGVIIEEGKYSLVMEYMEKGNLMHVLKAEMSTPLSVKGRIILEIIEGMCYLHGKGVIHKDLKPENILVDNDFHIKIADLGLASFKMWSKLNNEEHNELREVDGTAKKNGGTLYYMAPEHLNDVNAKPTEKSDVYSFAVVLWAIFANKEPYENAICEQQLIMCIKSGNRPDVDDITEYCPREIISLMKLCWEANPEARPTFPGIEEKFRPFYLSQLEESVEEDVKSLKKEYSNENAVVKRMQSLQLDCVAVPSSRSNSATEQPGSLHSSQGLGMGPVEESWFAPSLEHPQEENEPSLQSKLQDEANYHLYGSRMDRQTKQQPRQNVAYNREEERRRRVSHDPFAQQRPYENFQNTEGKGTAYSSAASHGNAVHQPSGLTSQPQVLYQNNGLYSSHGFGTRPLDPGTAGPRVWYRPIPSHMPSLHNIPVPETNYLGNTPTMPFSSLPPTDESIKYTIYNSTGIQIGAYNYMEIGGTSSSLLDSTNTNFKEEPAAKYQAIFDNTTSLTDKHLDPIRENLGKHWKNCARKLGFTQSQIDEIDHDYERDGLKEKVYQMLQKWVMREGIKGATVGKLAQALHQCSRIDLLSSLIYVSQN
Description: Inhibitory Activity Assay. The protocol:
The compound of the present invention and the control compound were dissolved in the assay buffer (50 mM Hepes pH 7.5, 50 mM NaCl, 30 mM MgCl2, 1 mM DTT, 0.02% CHAPS, 0.5 mg/mL BSA), and diluted in a ratio of 1:1.5 using a 22-point titration (high concentration 2 μM), and then added to a 384-well plate. […] After completion of the reaction, 5 μL of ADP-Glo reagent containing 0.02% CHAPS was added to each well and incubated at room temperature for 1 h to terminate the kinase reaction and use up all remaining ATP. Then, 5 μL of ADP-Glo detection solution containing 0.02% CHAPS was added to each well and incubated at room temperature for 30 min to measure the emittance intensity.
`C[C@H]1Oc2ccc(C#CCN3CCN(CC#Cc4ccc5c(c4)N(C)C(=O)[C@@H](NC(=O)c4n[nH]c(Cc6ccccc6)n4)CO5)CC3)cc2N(C)C(=O)[C@H]1NC(=O)c1n[nH]c(Cc2ccccc2)n1` [US20240270732, Compound I-3] returned a 50% inhibitory concentration (IC50) of 7.22 nM. Consider `C[C@H]1Oc2ccc(C#CCN3CCN(CC#Cc4ccc5c(c4)N(C)C(=O)[C@@H](NC(=O)c4ncn(Cc6ccccc6)n4)[C@@H](C)O5)CC3)cc2N(C)C(=O)[C@H]1NC(=O)c1n[nH]c(Cc2ccccc2)n1` [US20240270732, Compound I-4], for which it took 6.68 nM to reach half-maximal inhibition (IC50). Under `C[C@H]1Oc2ccc(C#CCN3CCN(CC#Cc4ccc5c(c4)N(C)C(=O)[C@@H](NC(=O)c4ncn(Cc6ccccc6)n4)CO5)CC3)cc2N(C)C(=O)[C@H]1NC(=O)c1n[nH]c(Cc2ccccc2)n1` [US20240270732, Compound I-5] stands 3.35 nM; under `C[C@H]1Oc2ccc(C#CCN3CCN(CC#Cc4ccc5c(c4)N(C)C(=O)[C@@H](NC(=O)c4nnn(Cc6ccccc6)n4)[C@@H](C)O5)CC3)cc2N(C)C(=O)[C@H]1NC(=O)c1n[nH]c(Cc2ccccc2)n1` [US20240270732, Compound I-6], 11.2 nM. For the compound `C[C@H]1Oc2ccc(C#CCN3CCN(CC#Cc4ccc5c(c4)N(C)C(=O)[C@@H](NC(=O)c4nnn(Cc6ccccc6)n4)CO5)CC3)cc2N(C)C(=O)[C@H]1NC(=O)c1n[nH]c(Cc2ccccc2)n1` [US20240270732, Compound I-7], the IC50 turned out to be 7.81 nM. Under `C[C@H]1Oc2ccc(C#CCN3CCN(CC#Cc4ccc5c(c4)N(C)C(=O)[C@@H](NC(=O)c4n[nH]c(Cc6ccccc6)n4)[C@@H](C)O5)CC3)cc2N(C)C(=O)[C@H]1NC(=O)c1cn(Cc2ccccc2)cn1` [US20240270732, Compound I-8] stands 9.5 nM; under `C[C@H]1Oc2ccc(C#CCN3CCN(CC#Cc4ccc5c(c4)N(C)C(=O)[C@@H](NC(=O)c4cn(Cc6ccccc6)cn4)CO5)CC3)cc2N(C)C(=O)[C@H]1NC(=O)c1n[nH]c(Cc2ccccc2)n1` [US20240270732, Compound I-9], 8.72 nM. Under `C#CCN1CCN(CC#Cc2ccc3c(c2)N(C)C(=O)[C@@H](NC(=O)c2n[nH]c(Cc4ccccc4)n2)CO3)CC1` [US20240270732, Compound I-10] stands 3.21 nM; under `CN1C(=O)[C@@H](NC(=O)c2n[nH]c(Cc3ccccc3)n2)COc2ccc(C#CCN3CCN(CC#Cc4ccc5c(c4)N(C)C(=O)[C@@H](NC(=O)c4n[nH]c(Cc6ccccc6)n4)CO5)CC3)cc21` [US20240270732, Compound I-11], 1.96 nM. Under `C[C@H]1Oc2ccc(C#CCN3CCN(CC#Cc4ccc5c(c4)N(C)C(=O)[C@@H](NC(=O)c4n[nH]c(Cc6ccccc6)n4)CO5)CC3)cc2N(C)C(=O)[C@H]1NC(=O)c1ncn(Cc2ccccc2)n1` [US20240270732, Compound I-12] stands 2.75 nM; under `CN1C(=O)[C@@H](NC(=O)c2n[nH]c(Cc3ccccc3)n2)COc2ccc(C#CCN3CCN(CC#Cc4ccc5c(c4)N(C)C(=O)[C@@H](NC(=O)c4ncn(Cc6ccccc6)n4)CO5)CC3)cc21` [US20240270732, Compound I-13], 3.22 nM; under `C#CCN1CCN(CC#Cc2ccc3c(c2)N(C)C(=O)[C@@H](NC(=O)c2n[nH]c(Cc4ccccc4)n2)[C@@H](C)O3)CC1` [US20240270732, Compound I-14], 4.79 nM. The compound `C#CCN1CCN(CC#Cc2ccc3c(c2)NC(=O)[C@@H](NC(=O)c2n[nH]c(Cc4ccccc4)n2)[C@@H](C)O3)CC1` [US20240270732, Compound I-16] yielded an IC50 of 5.59 nM. Under `C[C@H]1Oc2ccc(C#CCN3CCN(CC#Cc4ccc5c(c4)NC(=O)[C@@H](NC(=O)c4n[nH]c(Cc6ccccc6)n4)[C@@H](C)O5)CC3)cc2NC(=O)[C@H]1NC(=O)c1n[nH]c(Cc2ccccc2)n1` [US20240270732, Compound I-17] stands 3.56 nM; under `C#CCN1CCN(CC#Cc2ccc3c(c2)N(C)C(=O)[C@@H](NC(=O)c2n[nH]c(Cc4ccccc4)n2)[C@H](C)O3)CC1` [US20240270732, Compound I-18], 57.7 nM. Under `C[C@@H]1Oc2ccc(C#CCN3CCN(CC#Cc4ccc5c(c4)N(C)C(=O)[C@@H](NC(=O)c4n[nH]c(Cc6ccccc6)n4)[C@H](C)O5)CC3)cc2N(C)C(=O)[C@H]1NC(=O)c1n[nH]c(Cc2ccccc2)n1` [US20240270732, Compound I-19] stands 62.3 nM; under `C#CCN1CCN(CC#Cc2ccc3c(c2)NC(=O)[C@@H](NC(=O)c2n[nH]c(Cc4ccccc4)n2)CO3)CC1` [US20240270732, Compound I-20], 9.44 nM. Under `O=C(N[C@H]1COc2ccc(C#CCN3CCN(CC#Cc4ccc5c(c4)NC(=O)[C@@H](NC(=O)c4n[nH]c(Cc6ccccc6)n4)CO5)CC3)cc2NC1=O)c1n[nH]c(Cc2ccccc2)n1` [US20240270732, Compound I-21] stands 9.69 nM; under `C[C@H]1Oc2ccc(C#CCN3CCN(CC#Cc4ccc5c(c4)N(C)C(=O)[C@@H](NC(=O)c4ncn(Cc6ccccc6)n4)[C@@H](C)O5)CC3)cc2N(C)C(=O)[C@H]1NC(=O)c1ncn(Cc2ccccc2)n1` [US20240270732, Compound I-23], 4.66 nM. `C[C@H]1Oc2ccc(C#CCN3CCN(CC#Cc4ccc5c(c4)N(C)C(=O)[C@@H](NC(=O)c4nnn(Cc6ccccc6)n4)[C@@H](C)O5)CC3)cc2N(C)C(=O)[C@H]1NC(=O)c1ncn(Cc2ccccc2)n1` [US20240270732, Compound I-25]: the IC50 turned out to be 3.39 nM. Under `C[C@H]1Oc2ccc(C#CCN3CCN(CC#Cc4ccc5c(c4)N(C)C(=O)[C@@H](NC(=O)c4nnn(Cc6ccccc6)n4)CO5)CC3)cc2N(C)C(=O)[C@H]1NC(=O)c1ncn(Cc2ccccc2)n1` [US20240270732, Compound I-26] stands 3.73 nM; under `C[C@H]1Oc2ccc(C#CCN3CCN(CC#Cc4ccc5c(c4)N(C)C(=O)[C@@H](NC(=O)c4ncn(Cc6ccccc6)n4)[C@@H](C)O5)CC3)cc2N(C)C(=O)[C@H]1NC(=O)c1cn(Cc2ccccc2)cn1` [US20240270732, Compound I-27], 4 nM; under `C[C@H]1Oc2ccc(C#CCN3CCN(CC#Cc4ccc5c(c4)N(C)C(=O)[C@@H](NC(=O)c4cn(Cc6ccccc6)cn4)CO5)CC3)cc2N(C)C(=O)[C@H]1NC(=O)c1ncn(Cc2ccccc2)n1` [US20240270732, Compound I-28], 4.59 nM. Under `C#CCN1CCN(CC#Cc2ccc3c(c2)N(C)C(=O)[C@@H](NC(=O)c2ncn(Cc4ccccc4)n2)CO3)CC1` [US20240270732, Compound I-29] stands 2.88 nM. Under `C[C@H]1Oc2ccc(C#CCN3CCN(CC#Cc4ccc5c(c4)N(C)C(=O)[C@@H](NC(=O)c4ncn(Cc6ccccc6)n4)CO5)CC3)cc2N(C)C(=O)[C@H]1NC(=O)c1ncn(Cc2ccccc2)n1` [US20240270732, Compound I-31] stands 2.95 nM; under `CN1C(=O)[C@@H](NC(=O)c2ncn(Cc3ccccc3)n2)COc2ccc(C#CCN3CCN(CC#Cc4ccc5c(c4)N(C)C(=O)[C@@H](NC(=O)c4ncn(Cc6ccccc6)n4)CO5)CC3)cc21` [US20240270732, Compound I-32], 3.08 nM; under `C[C@H]1Oc2ccc(C#CCN3CCN(CC#Cc4ccc5c(c4)N(C)C(=O)[C@@H](NC(=O)c4ncn(Cc6ccccc6)n4)CO5)CC3)cc2N(C)C(=O)[C@H]1NC(=O)c1cn(Cc2ccccc2)cn1` [US20240270732, Compound I-33], 3.54 nM.
